Experimental data taken from patent publication US20240358692A1, “TREATMENT OF SCLERODERMA” (Aisa Pharma, Inc., priority 2023, published 2024).

Legend:
participants with SSc-RP [1] = test: SHAQ - Visual Analog Scale - Breathing Problems; format: in vivo, human
Text: The standard, validated, patient reported outcome measures tool for SSc patients, the Scleroderma Health Assessment Questionnaire (SHAQ), will be used to assess the participant qualify of life. Details are attached in the Appendix. The participant quality of life will be scored, and a disability index calculated for each questionnaire completed by the patient at Screening and each in-clinic visit. The absolute change in participant quality of life from baseline to the end of each dosing period will be calculated similar to frequency data as before.
The standard, validated, patient reported outcome measures tool for SSc patients, the SHAQ, was collected at the time points specified in the study schedules (FIG. 2 and FIGS. 4A and 4B) to assess the participant's quality of life. The SHAQ included a Raynaud's VAS that will also be reported separately.

participants with SSc-RP [2] = test: Average pain score recorded during weekly RP attacks (11-point Likert scale); format: in vivo, human; details: for Average Pain Score Change From Baseline [Mean (SD)]: Table G
Text: The absolute change in average pain score (11-point Likert scale) of weekly RP attacks from baseline to the end of each Dosing Period will be a secondary outcome variable. The sponsor-developed participant-informed diary will be used to record data. The average pain score of weekly RP attacks is defined as the total pain scores divided by total number of RP attacks within the last 7 days of each dosing period. Average of the last 7 days of screening assessments will be used as baseline for the analysis of all periods. The variable will be calculated similar to frequency data as before.

[3] = pooled Cilnidipine 10 mg and Cilnidipine 10 mg + Tadalafil 5 mg
[4] = pooled Cilnidipine 20 mg and Cilnidipine 20 mg + Tadalafil 5 mg
[5] = pooled cilnidipine 10 mg and 20 mg arms (combination: + tadalafil 5 mg)

In the case of COCCOC(=O)C1=C(C)NC(C)=C(C(=O)OC/C=C/c2ccccc2)C1c1cccc([N+](=O)[O-])c1 (stereo not shown) [Cilnidipine], the “% Δ from baseline, VAS Breathing mean” value (participants with SSc-RP [1]; Pooled cilnidipine (n=4)) is reported as −8.2%, the “VAS Breathing Problems Change from Baseline Max” value (participants with SSc-RP [1]; [3]) is reported as 1.00 and the “VAS Breathing Problems Change from Baseline Mean” value (participants with SSc-RP [1]; [3]) is reported as −0.175. The “VAS Breathing Problems Change from Baseline Median” value (participants with SSc-RP [1]; [3]) was 0.000, the “VAS Breathing Problems Change from Baseline Min” value (participants with SSc-RP [1]; [3]) was −1.20 and the “VAS Breathing Problems Change from Baseline Q1” value (participants with SSc-RP [1]; [3]) was −0.600. For the same compound, the “VAS Breathing Problems Change from Baseline Q3” value (participants with SSc-RP [1]; [3]) was 0.000, the “VAS Breathing Problems Day 12 Max” value (participants with SSc-RP [1]; [3]) was 6.30 and the “VAS Breathing Problems Day 12 Median” value (participants with SSc-RP [1]; [3]) was 0.000. The “VAS Breathing Problems Day 12 Min” value (participants with SSc-RP [1]; [3]) was 0.00, the “VAS Breathing Problems Day 12 Q1” value (participants with SSc-RP [1]; [3]) was 0.000 and the “VAS Breathing Problems Day 12 Q3” value (participants with SSc-RP [1]; [3]) was 2.350. For the same compound, the “VAS Breathing Problems Percent Change from Baseline Max” value (participants with SSc-RP [1]; [3]) was 38.5%, the “VAS Breathing Problems Percent Change from Baseline Mean” value (participants with SSc-RP [1]; [3]) was −26.05% and the “VAS Breathing Problems Percent Change from Baseline Median” value (participants with SSc-RP [1]; [3]) was −21.33%. The “VAS Breathing Problems Percent Change from Baseline Min” value (participants with SSc-RP [1]; [3]) was −100.0%, the “VAS Breathing Problems Percent Change from Baseline Q1” value (participants with SSc-RP [1]; [3]) was −63.33% and the “VAS Breathing Problems Percent Change from Baseline Q3” value (participants with SSc-RP [1]; [3]) was 11.23%. For the same compound, the “VAS Breathing Problems Change from Baseline Max” value (participants with SSc-RP [1]; [4]) was 3.70, the “VAS Breathing Problems Change from Baseline Median” value (participants with SSc-RP [1]; [4]) was 0.000 and the “VAS Breathing Problems Change from Baseline Min” value (participants with SSc-RP [1]; [4]) was −2.00. The “VAS Breathing Problems Change from Baseline Q1” value (participants with SSc-RP [1]; [4]) was −0.800, the “VAS Breathing Problems Change from Baseline Q3” value (participants with SSc-RP [1]; [4]) was 0.600 and the “VAS Breathing Problems Day 12 Max” value (participants with SSc-RP [1]; [4]) was 6.90. The “VAS Breathing Problems Day 12 Median” value (participants with SSc-RP [1]; [4]) was 0.400, the “VAS Breathing Problems Day 12 Min” value (participants with SSc-RP [1]; [4]) was 0.00 and the “VAS Breathing Problems Day 12 Q1” value (participants with SSc-RP [1]; [4]) was 0.000. For the same compound, the “VAS Breathing Problems Day 12 Q3” value (participants with SSc-RP [1]; [4]) was 0.700, the “VAS Breathing Problems Percent Change from Baseline Max” value (participants with SSc-RP [1]; [4]) was 600.0% and the “VAS Breathing Problems Percent Change from Baseline Min” value (participants with SSc-RP [1]; [4]) was −100.0%. The “VAS Breathing Problems Percent Change from Baseline Q1” value (participants with SSc-RP [1]; [4]) was −75.00%, the “VAS Breathing Problems Percent Change from Baseline Q3” value (participants with SSc-RP [1]; [4]) was 150.00% and the “VAS Breathing Problems Change from Baseline Max” value (participants with SSc-RP [1]; [5]) was 0.30. The “VAS Breathing Problems Change from Baseline Median” value (participants with SSc-RP [1]; [5]) was 0.000, the “VAS Breathing Problems Change from Baseline Min” value (participants with SSc-RP [1]; [5]) was −2.00 and the “VAS Breathing Problems Change from Baseline Q1” value (participants with SSc-RP [1]; [5]) was −1.200. For the same compound, the “VAS Breathing Problems Change from Baseline Q3” value (participants with SSc-RP [1]; [5]) was 0.000, the “VAS Breathing Problems Day 12 Max” value (participants with SSc-RP [1]; [5]) was 6.30 and the “VAS Breathing Problems Day 12 Median” value (participants with SSc-RP [1]; [5]) was 0.000. The “VAS Breathing Problems Day 12 Min” value (participants with SSc-RP [1]; [5]) was 0.00, the “VAS Breathing Problems Day 12 Q1” value (participants with SSc-RP [1]; [5]) was 0.000 and the “VAS Breathing Problems Day 12 Q3” value (participants with SSc-RP [1]; [5]) was 0.500. The “VAS Breathing Problems Percent Change from Baseline Max” value (participants with SSc-RP [1]; [5]) was 150.0%, the “VAS Breathing Problems Percent Change from Baseline Mean” value (participants with SSc-RP [1]; [5]) was −8.17% and the “VAS Breathing Problems Percent Change from Baseline Median” value (participants with SSc-RP [1]; [5]) was −41.33%. The “VAS Breathing Problems Percent Change from Baseline Min” value (participants with SSc-RP [1]; [5]) was −100.0%, the “VAS Breathing Problems Percent Change from Baseline Q1” value (participants with SSc-RP [1]; [5]) was −83.33% and the “VAS Breathing Problems Percent Change from Baseline Q3” value (participants with SSc-RP [1]; [5]) was 67.00%. For the same compound, the “Average Pain Score Change From Baseline [Mean (SD)]” value (participants with SSc-RP [2]; Cilnidipine 10 mg (n = 4)) was 0.47, the “Average Raynaud's Pain (change)” value (participants with SSc-RP [2]; Cilnidipine 20 mg (n = 3)) was 12% and the “Average Pain Score Change From Baseline [Mean (SD)]” value (participants with SSc-RP [2]; Cilnidipine 20 mg (n = 3)) was −0.47. For the same compound, the “Average Raynaud's Pain (change)” value (participants with SSc-RP [2]; Pooled Cilnidipine (n = 7)) was −27%.
